Usually Cmax stands for the peak of the concentration-time curve. A word on the EC50: it is the concentration that produces a half-maximal response. A word on the AUC(0-inf): it is the area under the concentration-time curve extrapolated to infinity. A low value points to low exposure. What is called Vd/F is the apparent distribution volume after extravascular dosing. As a reminder, the Tmax is the time at which the peak concentration occurs.

Values after ≈ are worked out from the molar mass of the structure shown.

For data set [1], the system named is Homo sapiens. Put plainly: Drug level in Japanese healthy volunteer treated with acetaminophen at 1000 mg, po by HPLC method. It counts as ADME, organism-based. To be noted: in vivo.
A short description of data set [2]: Cmax in Japanese healthy volunteer (5 volunteers) at 1000 mg, po by HPLC method. The class given is ADME, organism-based. On the set-up: dose 1000 mg, route oral. Particulars: human, in vivo.
Data set [3] deals with Homo sapiens. Nature of the data set: Analgesic activity in po dosed Japanese chronic pain patient (5 patients) assessed as compound dose require to cause 50% maximum pain relief score administered as single dose measured over 15 mins to 6 hrs. The class given is functional, organism-based.
In data set [4] the test system is Homo sapiens. Put plainly: Toxicity in Japanese chronic pain patient at 600 to 1000 mg, po administered as single dose. It counts as organism-based. To be noted: in vivo.
In data set [5] the test system is Homo sapiens. Nature of the data set: AUC (0 to infinity) in Japanese healthy volunteer (5 volunteers) assessed as acetaminophen-glucuronide at 1000 mg, po by HPLC method. The class given is ADME, organism-based. To be noted: in vivo. On the set-up: dose 1000 mg, time infinity, route oral.
In data set [6] the test system is Homo sapiens. Put plainly: Analgesic activity in Japanese chronic pain patient (5 patients) assessed as sigmoid factor at 800 +/- 141 mg, po administered as single dose measured over 15 mins to 6 hrs. The class given is functional.
Data set [7] can be described thus: Drug uptake in human after 4 hrs. It counts as ADME, organism-based. To be noted: in vivo, read-out: Drug uptake.
Data set [8] in a line: Drug uptake in Japanese chronic pain patient at 600 to 1000 mg, po administered as single dose after 4 hrs by fluorescence polarization immunoassay. It counts as ADME, organism-based. Particulars: human, in vivo, read-out: Drug uptake. For orientation: Polarisation of emitted light reports the rotation of a fluorescent probe.
Data set [9] can be described thus: AUC (0 to infinity) in Japanese healthy volunteer (5 volunteers) at 1000 mg, po by HPLC method. Set-up: dose 1000 mg, route oral, time infinity. The class given is ADME, organism-based. Particulars: human, in vivo.
Data set [10] in a line: Apparent volume of distribution in Japanese healthy volunteer (5 volunteers) at 1000 mg, po by HPLC method. The class given is ADME, organism-based. To be noted: human, in vivo.
Data set [11] has as its system Homo sapiens. Put plainly: Toxicity in Japanese healthy volunteer (5 volunteers) at 1000 mg, po. It counts as organism-based. To be noted: in vivo.
Data set [12] has as its system Homo sapiens. Nature of the data set: AUC (0 to infinity) in Japanese healthy volunteer (5 volunteers) assessed as acetaminophen-cysteine at 1000 mg, po by HPLC method. On the set-up: dose 1000 mg, time infinity, route oral. It counts as ADME, organism-based. To be noted: in vivo.
The nature of data set [13]: Apparent volume of distribution in Japanese chronic pain patient (5 patients) at 800 +/- 141 mg, po administered as single dose by fluorescence polarization immunoassay. The class given is ADME, organism-based. Particulars: human, in vivo.
Data set [14] deals with Homo sapiens. Nature of the data set: Analgesic activity in Japanese chronic pain patient (5 patients) assessed as maximum pain relief score at 800 +/- 141 mg, po administered as single dose measured over 15 mins to 6 hrs. The class given is functional.
Data set [15] in a line: Tmax in Japanese healthy volunteer (5 volunteers) at 1000 mg, po by HPLC method. Particulars: human, in vivo. It counts as ADME, organism-based.
Data set [16] relates to Homo sapiens. Put plainly: AUC (0 to infinity) in Japanese healthy volunteer (5 volunteers) assessed as acetaminophen-sulfate at 1000 mg, po by HPLC method. It counts as ADME, organism-based. On the set-up: dose 1000 mg, route oral, time infinity. To be noted: in vivo.
The nature of data set [17]: Tmax in Japanese chronic pain patient at 600 to 1000 mg, po administered as single dose by fluorescence polarization immunoassay. It counts as ADME, organism-based. Particulars: human, in vivo.
For data set [18], the system named is Homo sapiens. Put plainly: Drug metabolism in Japanese healthy volunteer assessed as acetaminophen-cysteine metabolite formation at 1000 mg, po by HPLC method. Particulars: in vivo. The class given is ADME, organism-based.

With `CC(=O)Nc1ccc(O)c(SC[C@H](N)C(=O)O)c1`, the Drug metabolism result in the data set on Homo sapiens [1] is “metabolite_detected”.
`CC(=O)Nc1ccc(O)cc1` [ACETAMINOPHEN] showed a Cmax in data set [2] of 17700 ng/mL. For the same compound, in the data set on Homo sapiens [3], the EC50 was found to be 2 µg/mL (≈ 13.2 µM). Also, the Activity result with Homo sapiens [4] is given as “Non-toxic”; in the data set on Homo sapiens [6] it was 1.3; in the data set on Homo sapiens [11] it was “Non-toxic”. Moreover, the values for the AUC in the data set on Homo sapiens [5], in the data set on Homo sapiens [12] and in the data set with Homo sapiens [16] were 66000 ng·h/mL, 3700 ng·h/mL and 21000 ng·h/mL, respectively. Besides, the concentration at 4 h in [7] is 120000 ng/mL; in data set [8], 6700 ng/mL. The compound also gave an AUC(0-inf) in data set [9] of 77800 ng·h/mL. The Vd/F in data set [10] amounted to 69.7 L; in [13], 30.9 L. Also, the Emax with Homo sapiens [14] is given as 4.6. The Tmax in data set [15] and in [17] was 30 min throughout. The Drug metabolism with Homo sapiens [18] was below 0.2 µg/mL.

The values are drawn from ChEMBL document CHEMBL3785018, “Pharmacokinetics/pharmacodynamics of acetaminophen analgesia in Japanese patients with chronic pain” (Biol Pharm Bull, 2007).
